Where two headings read alike, the source gives them in different places.
How the values were obtained:
[1] = test system: Vesicular stomatitis virus rVSV-SARS-CoV-2-S; settings: inhibitor; read-out: EC50 rVSV-SARS-CoV-2-S, Vero
in vitro = settings: human, adult lung organoid monolayer
SARS-CoV-2 = test system: SARS-CoV-2; set-up: species or system human adult lung organoid-derived monolayers; SARS-CoV-2 infectious titre in organoid supernatants, plaque assay; settings: inhibitor; read-out: EC50 SARS-CoV-2, ALO
Marburg virus MARV = settings: 48 h; inhibitor; read-out: EC50 MARV, Huh7
DENV2 = test system: DENV2; set-up: DENV2 replication, plaque assay; settings: inhibitor; read-out: EC50 DENV2, Huh7
[2] = test system: SARS-CoV-2-nluc, WA1/2020; settings: inhibitor; read-out: EC50 SARS-CoV-2-nluc, Calu-3
Huh7 = settings: human, huh7 cells
[3] = test system: Vesicular stomatitis virus rVSV-SARS-CoV-2-S; settings: inhibitor; read-out: EC50 rVSV-SARS-CoV-2-S, Vero; remark: listed apart in the source
[4] = test system: Venezuelan equine encephalitis virus VEEV (TC-83); settings: inhibitor; read-out: EC50 VEEV (TC-83), U-87 MG
Ebola virus EBOV = settings: 48 h; inhibitor; read-out: EC50 EBOV, Huh7

Row | SMILES | EC50 [1] [µM] | CC50 (in vitro) [µM] | EC50 (SARS-CoV-2) [µM] | EC50 (Marburg virus MARV) [µM] | EC50 (DENV2) [µM] | EC50 [2] [µM] | CC50 (Huh7) [µM] | EC50 [3] [µM] | EC50 [4] [µM] | EC50 (Ebola virus EBOV) [µM]
1 | Cc1cccc(/C=N/Nc2cc(N3CCOCC3)nc(OCCc3ccccn3)n2)c1 [Apilimod] | 0.012 | 9.9 | 0.42 | – | – | – | – | – | – | –
2 | COc1ccc(-c2cnc3c(C#Cc4cccnc4)snc3c2)cc1OC [RMC-113] | – | – | – | 7.8 | 1.4 | 1.45 | > 10 | 1.8 | 1.4 | 5

Reference: publication doi:10.1101/2024.04.15.589676 (bioRxiv, 2024)
